# Assay results from PMC2151583 (The Journal of General Physiology, 2006).
# Positions count from the first letter of the chain named.
# Experiments:
# Test in all cases: inside-out patch clamp, Xenopus oocytes
# HCN2 [1] = target: T1, HCN2 (Mus musculus, UniProt O88703); format: cell-based
# T1 sequence (O88703 1-863): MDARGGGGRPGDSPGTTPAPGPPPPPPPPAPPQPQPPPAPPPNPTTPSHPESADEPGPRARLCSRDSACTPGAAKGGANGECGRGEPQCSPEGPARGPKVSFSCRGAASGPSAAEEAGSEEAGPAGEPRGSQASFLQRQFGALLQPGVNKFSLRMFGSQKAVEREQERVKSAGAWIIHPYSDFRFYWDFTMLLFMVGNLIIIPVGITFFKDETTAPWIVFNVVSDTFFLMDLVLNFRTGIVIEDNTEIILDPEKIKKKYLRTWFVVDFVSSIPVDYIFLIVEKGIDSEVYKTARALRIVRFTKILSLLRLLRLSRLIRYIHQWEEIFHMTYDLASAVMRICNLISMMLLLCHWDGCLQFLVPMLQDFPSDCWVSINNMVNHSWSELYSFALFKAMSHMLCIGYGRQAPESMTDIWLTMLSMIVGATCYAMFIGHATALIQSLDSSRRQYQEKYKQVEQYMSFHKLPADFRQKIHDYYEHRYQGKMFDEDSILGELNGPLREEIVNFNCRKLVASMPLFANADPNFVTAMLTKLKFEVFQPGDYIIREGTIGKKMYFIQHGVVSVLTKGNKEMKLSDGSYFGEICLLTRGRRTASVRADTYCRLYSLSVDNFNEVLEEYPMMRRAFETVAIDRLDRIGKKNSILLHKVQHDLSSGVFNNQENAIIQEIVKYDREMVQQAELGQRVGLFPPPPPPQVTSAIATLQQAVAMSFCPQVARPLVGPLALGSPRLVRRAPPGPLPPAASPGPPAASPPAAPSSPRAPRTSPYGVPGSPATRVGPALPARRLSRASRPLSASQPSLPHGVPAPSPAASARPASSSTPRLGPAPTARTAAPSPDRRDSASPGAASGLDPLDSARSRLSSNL
# HCN2 [2] = target: T1, HCN2; format: cell-based; remark: listed apart in the source
# HCN2/FPN = target: T2, HCN2/FPN (Mus musculus, UniProt O88703, Q450F/E451P/K452N); format: cell-based
# T2 sequence (O88703 1-863 Q450F/E451P/K452N): T1 sequence (O88703 1-863) with Q450F, E451P, K452N
# HCN2 [3] = target: T1, HCN2; format: biochemical
"inside-out patch clamp, Xenopus oocytes; shift in V1/2 at 25 μM (HCN2 [1])","inside-out patch clamp, Xenopus oocytes; shift in V1/2 at 1 μM (HCN2 [2])",Compound,other results
12.3 mV,–,"CCCCCCCC(=O)OC[C@H](COP(=O)(O)O[C@H]1[C@H](O)[C@@H](O)[C@H](OP(=O)(O)O)[C@@H](OP(=O)(O)O)[C@H]1O)OC(=O)CCCCCCC [diC8 PI(3,4)P2, dioctanoyl phosphatidylinositol 3,4-bisphosphate]",–
7.5 mV,–,"CCCCCCCC(=O)OC[C@H](COP(=O)(O)O[C@H]1[C@H](O)[C@@H](O)[C@H](OP(=O)(O)O)[C@@H](O)[C@H]1O)OC(=O)CCCCCCC [diC8 PI(4)P, dioctanoyl phosphatidylinositol 4-phosphate]",–
–,+31.8 mV,"phosphatidylinositol 4,5-bisphosphate [native PI(4,5)P2]",–
–,–,"CCCCCCCC(=O)OC[C@H](COP(=O)(O)O[C@@H]1[C@H](O)[C@H](O)[C@@H](OP(=O)(O)O)[C@H](OP(=O)(O)O)[C@H]1O)OC(=O)CCCCCCC [diC8 PI(4,5)P2, dioctanoyl phosphatidylinositol 4,5-bisphosphate]","inside-out patch clamp, Xenopus oocytes; shift in V1/2 at 25 μM (HCN2/FPN): +13.9 mV; EC50 (HCN2 [3]): 10.9 µM"
–,+16.0 mV,"CCCCCCCC/C=C\CCCCCCCC(=O)SCCNC(=O)CCNC(=O)[C@H](O)C(C)(C)COP(=O)(O)OP(=O)(O)OC[C@H]1O[C@@H](n2cnc3c(N)ncnc32)[C@H](O)[C@@H]1OP(=O)(O)O [oleoyl CoA, Oleoyl CoA]",–
9.3 mV,–,"CCCCCCCC(=O)OC[C@H](COP(=O)(O)O[C@H]1[C@H](O)[C@@H](OP(=O)(O)O)[C@H](OP(=O)(O)O)[C@@H](OP(=O)(O)O)[C@H]1O)OC(=O)CCCCCCC [diC8 PI(3,4,5)P3, dioctanoyl phosphatidylinositol 3,4,5-trisphosphate]",–
